Patent US7179495B1 (Universitaetsklinikum Freiburg, priority 1998, dated 2007)

Experiments:
T cells [1] = assay: proliferation of T cells; type: cell-based
HaCaT cells = assay: proliferation of keratinocytes, 3H-thymidine incorporation; type: cell-based, human
T cells [2] = assay: induction of apoptosis in T cells; type: cell-based
keratinocytes (HaCaT) = assay: induction of apoptosis in keratinocytes; type: cell-based
Jurkat (leukaemia) = assay: apoptotic DNA fragmentation by DNA gel electrophoresis; type: cell-based, human
Description: The DNA fragmentation was determined by means of DNA gel electrophoresis. Jurkat (leukaemia) was used as the tumour cell line.
Apoptotic DNA fragments were isolated by means of lysis with NP 40. The cells were washed and pelleted after 4 hours or after 24 hours, respectively. The cell pellet was incubated for 10 sec. with lysis buffer (1% NP 40, Sigma; 20 mM EDTA, Sigma; 50 mM Tris-HCl, Sigma). the lysates were mixed with 1% SDS (Sigma), incubated at 56° C. for 2 h with RNase (5 μg/μl) (Boehringer), and digested with proteinase K (Sigma) (2.5 μg/μl) for 2 h at 37° C. After 10 M ammonium acetate had been added, the DNA was precipitated with 100% ethanol at −20° C. and analysed by means of gel electrophoresis on 1% agarose gels.

[3] = test system: epidermal cells (EC) and T cells (TC); assay: MECLR in vitro, EC or TC preincubated with hyperforin; settings: FIG. 9
Description: The roof of the blister was dissected out under sterile conditions using a scalpel and a suspension of epidermal cells (EC) was prepared by treating with trypsin. […] After that, the cells were washed and 50,000 EC were cocultured for 6 days (37° C., 5% CO2) with 150,000 TC (T cells) in 1640 RPMI containing 10% foetal calf serum (FCS) containing 1% penicillin-streptomycin in 96-well flat-bottomed microtitre plates (Greiner). 1 μCurie of ^3H-thymidine (Amersham) was then added per well and, after 18 h, the incorporated radioactivity was measured in a scintillation counter (Canberra Packard). The radioactivity which is measured is proportional to the replication of the DNA in the cells.

Cc1cc(O)c2c(=O)c3c(O)cc(O)c4c5c(O)cc(O)c6c(=O)c7c(O)cc(C)c8c1c2c(c34)c(c78)c65 [hypericin]
effect on proliferation of T cells (T cells [1]): proliferation-inhibiting effect
effect on proliferation of keratinocytes (HaCaT) (HaCaT cells): proliferation-inhibiting effect
induction of apoptosis (T cells [2]): can induce apoptasis
induction of apoptosis (keratinocytes (HaCaT)): can induce apoptasis

CC(=O)O[C@H]1C(=O)[C@@]2(C)[C@H]([C@H](OC(=O)c3ccccc3)[C@]3(O)C[C@H](OC(=O)[C@H](O)[C@@H](NC(=O)c4ccccc4)c4ccccc4)C(C)=C1C3(C)C)[C@]1(OC(C)=O)CO[C@@H]1C[C@@H]2O [taxol, reference compound]
apoptotic DNA fragmentation (Jurkat (leukaemia); 10 μM, 4 hours): +
apoptotic DNA fragmentation (Jurkat (leukaemia); 10 μM, 24 hours): ++

CC(C)=CCC[C@]1(C)[C@@H](CC=C(C)C)CC2(CC=C(C)C)C(=O)C(CC=C(C)C)=C(O)C1(C(=O)C(C)C)C2=O (stereo partly shown) [hyperforin]
concentration from which a proliferation-inhibiting effect is seen (HaCaT cells; human keratinocytes): ≥ 100 ng/mL
proliferation of HaCaT cells (HaCaT cells; hyperforin 100 μg/ml, 24 h, FIG. 6): virtually completely inhibited
apoptotic DNA fragmentation (Jurkat (leukaemia); 40 μM, 4 hours): ++
apoptotic DNA fragmentation (Jurkat (leukaemia); 40 μM, 24 hours): ++
speed of apoptosis induction compared with taxol (Jurkat (leukaemia); hyperforin 40 μM vs taxol 10 μM, fully developed after only 4 hours): induces apoptosis in tumour cells more rapidly than does taxol
proliferation in MECLR ([3]; EC incubated 24 h with 24 μg of hyperforin/ml): significantly inhibits proliferation
proliferation in MECLR ([3]; TC incubated 24 h with 24 μg of hyperforin/ml): significantly inhibits proliferation
